PubChem BioAssay (NCI)
Where “and” joins values, the source holds several entries; their conditions need not be identical. Identical values can stand only once.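 The compound was tested at five concentrations on cells cultured in 96-well plates, with a 48-hour exposure period. At the GI50, growth is halved. TGI denotes the concentration required for complete inhibition of growth.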

Columns and labels:
Assay in all cases: NCI tumour cell line growth inhibition, 48 h
MDA-MB-231 breast = system: MDA-MB-231 breast
SW-620 colon = system: SW-620 colon
P388 leukemia = system: P388 leukemia
MDA-N = system: MDA-N
P388/ADR leukemia = system: P388/ADR leukemia
LXFL 529 NSCLC = system: LXFL 529 NSCLC
PC-3 prostate = system: PC-3 prostate
SN12K1 renal = system: SN12K1 renal
MDA-MB-435 = system: MDA-MB-435
HS 578T breast = system: HS 578T breast
NCI/ADR-RES ovarian = system: NCI/ADR-RES ovarian
BT-549 breast = system: BT-549 breast
DU-145 prostate = system: DU-145 prostate
T-47D breast = system: T-47D breast
MCF7 breast = system: MCF7 breast
OVCAR-3 ovarian = system: OVCAR-3 ovarian
HCC-2998 colon = system: HCC-2998 colon
IGROV1 ovarian = system: IGROV1 ovarian
U251 CNS = system: U251 CNS
DMS 114 small cell lung = system: DMS 114 small cell lung
SF-539 CNS = system: SF-539 CNS
HOP-92 NSCLC = system: HOP-92 NSCLC
LOX IMVI melanoma = system: LOX IMVI melanoma
MALME-3M melanoma = system: MALME-3M melanoma
OVCAR-4 ovarian = system: OVCAR-4 ovarian
SN12C renal = system: SN12C renal
SF-295 CNS = system: SF-295 CNS
A549 NSCLC = system: A549 NSCLC
NCI-H23 lung = system: NCI-H23 lung
CAKI-1 renal = system: CAKI-1 renal
HCT-116 colon = system: HCT-116 colon
SNB-78 CNS = system: SNB-78 CNS
RPMI-8226 leukemia = system: RPMI-8226 leukemia
SK-OV-3 ovarian = system: SK-OV-3 ovarian
KM12 colon = system: KM12 colon
SNB-19 CNS = system: SNB-19 CNS
NCI-H226 lung = system: NCI-H226 lung
XF 498 CNS = system: XF 498 CNS
DMS 273 small cell lung = system: DMS 273 small cell lung
HOP-18 NSCLC = system: HOP-18 NSCLC
SF-268 CNS = system: SF-268 CNS
DLD-1 colon = system: DLD-1 colon
SK-MEL-2 melanoma = system: SK-MEL-2 melanoma
HT29 colon = system: HT29 colon
SK-MEL-5 melanoma = system: SK-MEL-5 melanoma
K-562 leukemia = system: K-562 leukemia
HL-60(TB) leukemia = system: HL-60(TB) leukemia
RXF 393 renal = system: RXF 393 renal
KM20L2 colon = system: KM20L2 colon
UACC-62 melanoma = system: UACC-62 melanoma
NCI-H522 lung = system: NCI-H522 lung
UO-31 renal = system: UO-31 renal
A498 renal = system: A498 renal
CCRF-CEM leukemia = system: CCRF-CEM leukemia
OVCAR-5 ovarian = system: OVCAR-5 ovarian
SK-MEL-28 melanoma = system: SK-MEL-28 melanoma
NCI-H460 lung = system: NCI-H460 lung
HCT-15 colon = system: HCT-15 colon
OVCAR-8 ovarian = system: OVCAR-8 ovarian
EKVX NSCLC = system: EKVX NSCLC
SNB-75 CNS = system: SNB-75 CNS
COLO 205 colon = system: COLO 205 colon
MOLT-4 leukemia = system: MOLT-4 leukemia
M19-MEL melanoma = system: M19-MEL melanoma
HOP-62 NSCLC = system: HOP-62 NSCLC
UACC-257 melanoma = system: UACC-257 melanoma

With `COc1cccc2c1C(=O)c1c(O)c3c(c(O)c1C2=O)C[C@@](O)(C(C)=O)C[C@@H]3OC1CC(N(Cc2ccccc2)Cc2ccccc2)C(O)C(C)O1` (some centres not stated) the TGI (MDA-MB-231 breast) was > 28.1 µM, the GI50 (SW-620 colon) was < 0.01 µM and 0.0869 µM and the TGI (P388 leukemia) was 12.3 µM. For the same compound, the TGI (MDA-N) was > 23.2 µM, the TGI (P388/ADR leukemia) was > 50 µM and the GI50 (LXFL 529 NSCLC) was < 0.01 µM. The TGI (PC-3 prostate) was > 28.1 µM, the TGI (SN12K1 renal) was > 46.9 µM and the TGI (MDA-MB-435) was 14 µM. The TGI (HS 578T breast) was > 50 µM, the TGI (NCI/ADR-RES ovarian) was > 37.5 µM and the TGI (BT-549 breast) was > 50 µM. The TGI (DU-145 prostate) was > 28.1 µM, the TGI (T-47D breast) was > 28.1 µM and the TGI (MCF7 breast) was > 36 µM.

`CCOC(=O)CN(CC)C(=O)NC12CC3CC(CC(C3)C1)C2` was tested, and the TGI (OVCAR-3 ovarian) was 512 µM, the TGI (HCC-2998 colon) was 700 µM and the TGI (IGROV1 ovarian) was > 750 µM. For the same compound, the TGI (U251 CNS) was > 536 µM, the TGI (DMS 114 small cell lung) was 363 µM and the TGI (SF-539 CNS) was 659 µM. It also gave a TGI (HOP-92 NSCLC) of 176 µM, a TGI (LOX IMVI melanoma) of 409 µM and a TGI (MALME-3M melanoma) of 378 µM. For the same compound, the TGI (OVCAR-4 ovarian) was 568 µM, the TGI (SN12C renal) was > 750 µM and the TGI (SW-620 colon) was > 750 µM. The TGI (SF-295 CNS) was > 615 µM, the TGI (A549 NSCLC) was > 750 µM and the TGI (NCI-H23 lung) was 560 µM. The TGI (CAKI-1 renal) was 483 µM, the TGI (P388 leukemia) was 508 µM and the TGI (HCT-116 colon) was 522 µM. The TGI (P388/ADR leukemia) was 640 µM, the TGI (SNB-78 CNS) was 709 µM and the TGI (RPMI-8226 leukemia) was 454 µM. For the same compound, the TGI (SK-OV-3 ovarian) was 513 µM, the TGI (KM12 colon) was > 750 µM and the TGI (SNB-19 CNS) was > 750 µM. For the same compound, the TGI (NCI-H226 lung) was 480 µM, the TGI (XF 498 CNS) was 293 µM and the TGI (DMS 273 small cell lung) was > 705 µM. The TGI (HOP-18 NSCLC) was 609 µM, the TGI (SF-268 CNS) was > 750 µM and the TGI (DLD-1 colon) was > 119 µM. For the same compound, the TGI (SK-MEL-2 melanoma) was 281 µM, the TGI (HT29 colon) was 425 µM and the TGI (SN12K1 renal) was 569 µM. The TGI (SK-MEL-5 melanoma) was 211 µM, the TGI (K-562 leukemia) was 683 µM and the TGI (HL-60(TB) leukemia) was 348 µM. The TGI (RXF 393 renal) was 509 µM, the TGI (KM20L2 colon) was 471 µM and the TGI (UACC-62 melanoma) was 312 µM. It also gave a TGI (NCI-H522 lung) of 493 µM, a TGI (UO-31 renal) of 389 µM and a TGI (A498 renal) of 413 µM. For the same compound, the TGI (CCRF-CEM leukemia) was 631 µM, the TGI (OVCAR-5 ovarian) was 545 µM and the TGI (NCI/ADR-RES ovarian) was > 680 µM. For the same compound, the TGI (SK-MEL-28 melanoma) was > 750 µM, the TGI (NCI-H460 lung) was 558 µM and the TGI (HCT-15 colon) was 646 µM. For the same compound, the TGI (OVCAR-8 ovarian) was > 750 µM, the TGI (EKVX NSCLC) was > 422 µM and the TGI (SNB-75 CNS) was 316 µM. The TGI (COLO 205 colon) was 270 µM, the TGI (MOLT-4 leukemia) was 436 µM and the TGI (M19-MEL melanoma) was 472 µM. For the same compound, the TGI (HOP-62 NSCLC) was 602 µM, the TGI (UACC-257 melanoma) was 433 µM and the TGI (MCF7 breast) was 461 µM.
